In patent US10947188B2, “Small molecule ferroptosis inducers” (THE TRUSTEES OF COLUMBIA UNIVERSITY IN THE CITY OF NEW YORK, priority 2016, dated 2021):

Assays:
HT-1080 = assay: Modulatory profiling: Alamar Blue viability, lethal compound cotreated with death modulator (EC50, AUC); format: cell-based; set-up: AUC, modulator HT.3MA / AUC, modulator HT.ALLN / AUC HT.ATA / AUC HT.ActD / AUC HT.BHA / AUC HT.BHT / AUC HT.BocD / AUC HT.CHX / AUC HT.Co2+ / AUC HT.DPQ / AUC HT.EGTA / AUC HT.Lmim / AUC HT.NAD+ / AUC HT.Nec-1 / AUC HT.SP600125 / AUC HT.TLCK / AUC HT.U0126: unit not given beside the values; conditions: for AUC HT.ATA: HT-1080, modulator ATA; for AUC HT.ActD: HT-1080, modulator ActD; for AUC HT.BHA: HT-1080, modulator BHA; for AUC HT.BHT: HT-1080, modulator BHT; for AUC HT.BocD: HT-1080, modulator BocD; for AUC HT.CHX: HT-1080, modulator CHX; for AUC HT.Co2+: HT-1080, modulator Co2+; for AUC HT.CspA: HT-1080, modulator CspA; for AUC HT.DPQ: HT-1080, modulator DPQ; for AUC HT.EGTA: HT-1080, modulator EGTA; for AUC HT.Gd3+: HT-1080, modulator Gd3+; for AUC HT.LNAME: HT-1080, modulator LNAME; for AUC HT.Lmim: HT-1080, modulator Lmim; for AUC HT.NAD+: HT-1080, modulator NAD+; for AUC HT.NMMA: HT-1080, modulator NMMA; for HT.atoc (AUC) / HT.bCarotene (AUC) / HT.deferox (AUC) / HT.digoxin (AUC) / HT.trolox (AUC) / HT.zVAD (AUC): HT-1080; for HT.atoc (AUC): modulator atoc; for HT.bCarotene (AUC): modulator bCarotene; for HT.deferox (AUC): modulator deferox; for HT.digoxin (AUC): modulator digoxin; for HT.trolox (AUC): modulator trolox; for HT.zVAD (AUC): modulator zVAD; as to AUC HT.BHA: reference of the scale not given here; as to AUC HT.EGTA: reference of the scale not given here
BJeLR = assay: as above; format: cell-based, human; set-up: AUC, modulator BJ.Gd3+ / AUC, modulator BJ.LNAME / AUC, modulator BJ.Lmin / AUC, modulator BJ.3MA / AUC, modulator BJ.ALLN / AUC, modulator BJ.Boc D / AUC, modulator BJ.CHX / AUC, modulator BJ.Co2+ / AUC, modulator BJ.Nec-1 / AUC, modulator BJ.Pepstatin / AUC, modulator BJ.TLCK / AUC, modulator BJ.atoc / AUC, modulator BJ.trolox / AUC, modulator BJ.zVAD: unit not given beside the values; conditions: BJeLR cells, modulatory profile value (AUC); for AUC, modulator BJ.3MA: lethal compound cotreated with modulator 3MA; for AUC, modulator BJ.ALLN: lethal compound cotreated with modulator ALLN; for AUC, modulator BJ.Boc D: lethal compound cotreated with modulator Boc D; for AUC, modulator BJ.CHX: lethal compound cotreated with modulator CHX; for AUC, modulator BJ.Co2+: lethal compound cotreated with modulator Co2+; for AUC, modulator BJ.DPQ: lethal compound cotreated with modulator DPQ; for AUC, modulator BJ.Gd3+: lethal compound cotreated with modulator Gd3+; for AUC, modulator BJ.LNAME: lethal compound cotreated with modulator LNAME; for AUC, modulator BJ.Lmin/NAD+: lethal compound cotreated with modulator Lmin/NAD+; for AUC, modulator BJ.Lmin: lethal compound cotreated with modulator Lmin; for AUC, modulator BJ.NAD+: lethal compound cotreated with modulator NAD+; for AUC, modulator BJ.NMMA: lethal compound cotreated with modulator NMMA; for AUC, modulator BJ.Nec-1: lethal compound cotreated with modulator Nec-1; for AUC, modulator BJ.Pepstatin: lethal compound cotreated with modulator Pepstatin; for AUC, modulator BJ.TLCK: lethal compound cotreated with modulator TLCK; as to AUC, modulator BJ.3MA: reference of the scale not given here; as to AUC, modulator BJ.ALLN: reference of the scale not given here; as to AUC, modulator BJ.Boc D: reference of the scale not given here; as to AUC, modulator BJ.CHX: reference of the scale not given here; as to AUC, modulator BJ.Co2+: reference of the scale not given here; as to AUC, modulator BJ.DPQ: reference of the scale not given here; as to AUC, modulator BJ.Gd3+: reference of the scale not given here; as to AUC, modulator BJ.LNAME: reference of the scale not given here; as to AUC, modulator BJ.NAD+: reference of the scale not given here; as to AUC, modulator BJ.NMMA: reference of the scale not given here; as to AUC, modulator BJ.Nec-1: reference of the scale not given here; as to AUC, modulator BJ.Pepstatin: reference of the scale not given here; as to AUC, modulator BJ.TLCK: reference of the scale not given here

Cc1[nH]c2c(ccc3ccccc32)c1C1C(CCN)C1(C)C (stereo not shown) [CIL74]
AUC HT.ATA (HT-1080): 0.01362
AUC HT.ActD (HT-1080): 0.02636
AUC HT.BHA (HT-1080): −0.08659
AUC HT.BHT (HT-1080): −0.04572
AUC HT.BocD (HT-1080): 0.01242
AUC HT.CHX (HT-1080): 0.02524
AUC HT.Co2+ (HT-1080): 0.03244
AUC HT.CspA (HT-1080): −0.004622
AUC HT.DPQ (HT-1080): 0.04847
AUC HT.EGTA (HT-1080): −0.02674
AUC HT.Gd3+ (HT-1080): −0.008213
AUC HT.LNAME (HT-1080): 0.01925
AUC HT.Lmim (HT-1080): 0.02034
AUC HT.NAD+ (HT-1080): 0.07664
AUC HT.NMMA (HT-1080): 9.3282E−05
HT.atoc (AUC) (HT-1080): 0.07412
HT.bCarotene (AUC) (HT-1080): −0.02032
HT.deferox (AUC) (HT-1080): −0.008945
HT.digoxin (AUC) (HT-1080): −0.02586
HT.trolox (AUC) (HT-1080): −0.0236
HT.zVAD (AUC) (HT-1080): 0.01022
AUC, modulator BJ.3MA (BJeLR): 0.03615
AUC, modulator BJ.ALLN (BJeLR): −0.02536
AUC, modulator BJ.Boc D (BJeLR): 0.04324
AUC, modulator BJ.CHX (BJeLR): 0.01466
AUC, modulator BJ.Co2+ (BJeLR): 0.2135
AUC, modulator BJ.DPQ (BJeLR): −0.02906
AUC, modulator BJ.Gd3+ (BJeLR): 0.02963
AUC, modulator BJ.LNAME (BJeLR): 0.001619
AUC, modulator BJ.Lmin/NAD+ (BJeLR): 0.07154
AUC, modulator BJ.Lmin (BJeLR): 0.007766
AUC, modulator BJ.NAD+ (BJeLR): −0.05906
AUC, modulator BJ.NMMA (BJeLR): 0.01059
AUC, modulator BJ.Nec-1 (BJeLR): −0.02489
AUC, modulator BJ.Pepstatin (BJeLR): 0.08294
AUC, modulator BJ.TLCK (BJeLR): −0.02942

Cc1cc(C)c2c(=O)n(CC(=O)NCCCN3CCN(c4ccccc4F)CC3)sc2n1 [CIL50]
AUC HT.ATA (HT-1080): 0.06518
AUC HT.ActD (HT-1080): −0.00775
AUC HT.BHA (HT-1080): 0.006655
AUC HT.BHT (HT-1080): −0.06029
AUC HT.BocD (HT-1080): 0.004017
AUC HT.CHX (HT-1080): −0.04825
AUC HT.Co2+ (HT-1080): −0.08688
AUC HT.CspA (HT-1080): −0.01271
AUC HT.DPQ (HT-1080): −0.01588
AUC HT.EGTA (HT-1080): −0.02244
AUC HT.Gd3+ (HT-1080): −0.03877
AUC HT.LNAME (HT-1080): 0.01806
AUC HT.Lmim (HT-1080): −0.00536
AUC HT.NAD+ (HT-1080): 0.009799
AUC HT.NMMA (HT-1080): 0.004196
HT.atoc (AUC) (HT-1080): 0.06547
HT.bCarotene (AUC) (HT-1080): 0.01961
HT.deferox (AUC) (HT-1080): −0.04084
HT.digoxin (AUC) (HT-1080): 0.02124
HT.trolox (AUC) (HT-1080): −0.01565
HT.zVAD (AUC) (HT-1080): 0.02907
AUC, modulator BJ.3MA (BJeLR): −0.001613
AUC, modulator BJ.ALLN (BJeLR): −0.008924
AUC, modulator BJ.Boc D (BJeLR): 0.03113
AUC, modulator BJ.CHX (BJeLR): 0.1415
AUC, modulator BJ.Co2+ (BJeLR): −0.0178
AUC, modulator BJ.DPQ (BJeLR): −0.03869
AUC, modulator BJ.Gd3+ (BJeLR): −0.02113
AUC, modulator BJ.LNAME (BJeLR): 0.03227
AUC, modulator BJ.Lmin/NAD+ (BJeLR): 0.01676
AUC, modulator BJ.Lmin (BJeLR): 0.03123
AUC, modulator BJ.NAD+ (BJeLR): −0.08482
AUC, modulator BJ.NMMA (BJeLR): −0.004554
AUC, modulator BJ.Nec-1 (BJeLR): −0.05683
AUC, modulator BJ.Pepstatin (BJeLR): 0.003838
AUC, modulator BJ.TLCK (BJeLR): −0.05225

O=C1C(Cl)=C(N2CCOCC2)C(=O)C(Cl)=C1N1CCOCC1 [CIL11]
AUC HT.ATA (HT-1080): 0.0148
AUC HT.ActD (HT-1080): −0.0343
AUC HT.BHA (HT-1080): −0.01902
AUC HT.BHT (HT-1080): −0.09641
AUC HT.BocD (HT-1080): 0.07911
AUC HT.CHX (HT-1080): 0.007052
AUC HT.Co2+ (HT-1080): 0.05358
AUC HT.CspA (HT-1080): −0.005498
AUC HT.DPQ (HT-1080): 0.003904
AUC HT.EGTA (HT-1080): 0.004002
AUC HT.Gd3+ (HT-1080): −0.0298
AUC HT.LNAME (HT-1080): 0.02954
AUC HT.Lmim (HT-1080): −0.034
AUC HT.NAD+ (HT-1080): 0.02582
AUC HT.NMMA (HT-1080): −0.02554
AUC HT.Nec-1 (HT-1080; HT-1080, modulator Nec-1): 0.01983
AUC HT.Pepstatin (HT-1080; HT-1080, modulator Pepstatin): −0.003096
AUC HT.SP600125 (HT-1080; HT-1080, modulator SP600125): −0.02876
AUC HT.TLCK (HT-1080; HT-1080, modulator TLCK): 0.01902
AUC HT.U0126 (HT-1080; HT-1080, modulator U0126): 0.06089
HT.atoc (AUC) (HT-1080): 0.07926
HT.bCarotene (AUC) (HT-1080): −0.01827
HT.deferox (AUC) (HT-1080): 0.0278
HT.digoxin (AUC) (HT-1080): −0.01376
HT.trolox (AUC) (HT-1080): −0.02115
HT.zVAD (AUC) (HT-1080): −0.002495
AUC, modulator HT.3MA (HT-1080; HT-1080 cells, lethal compound cotreated with modulator 3MA, modulatory profile value (AUC)): 0.0001144
AUC, modulator HT.ALLN (HT-1080; HT-1080 cells, lethal compound cotreated with modulator ALLN, modulatory profile value (AUC)): 0.01794
AUC, modulator BJ.3MA (BJeLR): 0.09004
AUC, modulator BJ.ALLN (BJeLR): 0.01538
AUC, modulator BJ.Boc D (BJeLR): −0.04323
AUC, modulator BJ.CHX (BJeLR): 0.1239
AUC, modulator BJ.Co2+ (BJeLR): 0.07771
AUC, modulator BJ.DPQ (BJeLR): −0.01566
AUC, modulator BJ.Gd3+ (BJeLR): 0.02905
AUC, modulator BJ.LNAME (BJeLR): −0.0003217
AUC, modulator BJ.Lmin/NAD+ (BJeLR): 0.01344
AUC, modulator BJ.Lmin (BJeLR): −0.04034
AUC, modulator BJ.NAD+ (BJeLR): −0.03919
AUC, modulator BJ.NMMA (BJeLR): −0.00378
AUC, modulator BJ.Nec-1 (BJeLR): 0.02974
AUC, modulator BJ.Pepstatin (BJeLR): 0.04125
AUC, modulator BJ.TLCK (BJeLR): −0.01155
AUC, modulator BJ.atoc (BJeLR; lethal compound cotreated with modulator atoc): −0.02082
AUC, modulator BJ.trolox (BJeLR; lethal compound cotreated with modulator trolox): −0.01782
AUC, modulator BJ.zVAD (BJeLR; lethal compound cotreated with modulator zVAD): −0.004517
